Source: the pKa sets of Baltruschat and Czodrowski (2020)

Details: acidic group
With Cc1cnc2c(O)cccc2c1C the pKa was 10.1.
For CC(C)c1cccc(=O)c(O)c1Br, the pKa was 6.68.
CN1CCC(=O)NC1=O gave a pKa of 11.9.
Oc1cccc2cc3ccccc3cc12 gave a pKa of 9.88.
Compound CC1NCCc2c1[nH]c1ccc(Cl)cc21 (stereo not given) has a pKa of 15.2.
In the case of [O-]N=C1/C(=N/O)CCC/C1=N\O, the pKa is reported as 11.1.
In the case of OC[C@@H]1O[C@@H]2NC(=S)O[C@@H]2[C@H]1O, the pKa is reported as 9.48.
For c1ccc2[nH]cnc2c1, the pKa was 12.6.
Compound O=C1CC(=O)C(=O)C1 has a pKa of 3.
With OC(C[S-])CS the pKa was 10.7.
In the case of OC(O)=C1c2ccccc2-c2ccccc21, the pKa is reported as 2.01.
For [NH3+]c1ccc(CC(=O)O)cc1, the pKa was 3.49.
CC(C)SC(C)C(=O)O (stereo not given) showed a pKa of 3.78.
Compound O=C(O)c1c(Cl)cccc1[N+](=O)[O-] has a pKa of 1.41.
For C[NH+](C)CCc1nnn[nH]1, the pKa was 4.59.
Cc1nc2c(N)cccc2[nH]1 showed a pKa of 12.3.
Cc1cc([C@@H]([NH3+])CO)c(O)c([C@@H]([NH3+])CO)c1 showed a pKa of 6.3.
In the case of O=C1[C@H]2CCCC[C@H]2C(=O)N1O, the pKa is reported as 6.
With COc1cc(S(C)=O)ccc1-c1nc2[nH]ncc2[nH]1 (stereo not given) the pKa was 12.
With COc1ccc(-c2nc3ncncc3[nH]2)c(OC)c1 the pKa was 9.92.
O=C([O-])c1ccc(NS(=O)(=O)c2ccccc2)cc1 showed a pKa of 7.75.
With C[NH+]1C[C@@H](C(=O)O)C[C@@]2(O)c3cccc4[nH]cc(c34)C[C@H]12 the pKa was 3.38.
With O=C1CC(Sc2ccccc2)N1 (stereo not given) the pKa was 13.3.
O/N=C1C=C/C(=N\O)c2cccnc2/1 showed a pKa of 10.
In the case of CC(C)c1ccc(C(=O)/C=C/C(=O)O)cc1, the pKa is reported as 3.4.
In the case of O=S(=O)(Cc1ccccc1)c1ncc[nH]1, the pKa is reported as 8.67.
Oc1ccccc1CN1CCOCC1 gave a pKa of 10.3.
COc1cc(C)nc(-n2nc(C)cc2O)n1 showed a pKa of 6.9.
For CCCC[NH2+]CC(=O)O, the pKa was 2.32.
For CC(C)(C(=O)O)c1nnnn1C1CCCCC1, the pKa was 3.7.
In the case of O=C(O)C1=C/C=C\C=C/C=C\1, the pKa is reported as 4.4.
In the case of NS(=O)(=O)c1nnc(Nc2ccccc2)s1, the pKa is reported as 7.7.
In the case of O=[N+]([O-])c1cccc(S)c1, the pKa is reported as 5.24.
In the case of CCCC[NH+](CCS)CCCC, the pKa is reported as 7.76.
With COc1cccc(CCC(=O)O)c1 the pKa was 4.65.
Work on C=C(/C=C(/C)O)C(C)(C)C yielded a pKa of 11.
CN(C)/C=N/c1ccccc1O gave a pKa of 11.
In the case of OC[C@@H]1O[C@H]([n+]2ccc(NO)nc2O)[C@@H](O)[C@H]1O, the pKa is reported as 2.26.
In the case of Cc1ccc(S(=O)(=O)N[C@@H](CC(N)=O)C(=O)[O-])cc1, the pKa is reported as 11.4.
Compound NS(=O)(=O)c1ccc(/N=C/c2ccccc2O)cc1 has a pKa of 6.63.
Compound Cc1ccc(NC=S)cc1 has a pKa of 11.6.
With [NH3+][C@@H](CCC(=O)O)C(=O)[O-] the pKa was 4.46.
Work on Oc1ccc(F)cc1CN1CCOCC1 yielded a pKa of 10.5.
For O=[N+]([O-])c1cccc(S(=O)(=O)O)c1, the pKa was -7.1.
In the case of CCCC/C=[N+](\[O-])O, the pKa is reported as 4.5.
For CC(c1ccc([N+](=O)[O-])cc1)[N+](=O)[O-] (stereo not given), the pKa was 6.51.
With Cc1nn(-c2ccccc2)c(O)c1C1CCCCC1 the pKa was 11.6.
For O=C(O)C12CCC(CC1)C2, the pKa was 4.89.
CCc1ccc(C(C)C)cc1O showed a pKa of 10.6.
For C[Si](C)(C)CC(=O)O, the pKa was 5.22.
Compound CC1=NS(=O)(=O)c2cc(Cl)ccc2N1 has a pKa of 8.62.
For Cn1nnnc1CC(=O)O, the pKa was 2.83.
Work on CCC(CC)C1(CC)C(=O)NC(=S)NC1=O yielded a pKa of 7.46.
Compound Cc1ccc(S(=O)(=O)N[C@@H](CCC(N)=O)C(=O)[O-])cc1 has a pKa of 11.8.
For Cc1c(Br)cccc1C(=O)O, the pKa was 3.36.
Work on Cc1ccc(O)c(CN(C)C)c1 yielded a pKa of 11.2.
In the case of Cn1nc(/N=N/O)nc1N, the pKa is reported as 5.36.
Cc1n[nH]c(C(=O)O)c1[N+](=O)[O-] gave a pKa of 2.26.
With Cc1ccc(O)cc1Cc1cc([N+](=O)[O-])ccc1[O-] the pKa was 10.3.
[NH3+]CCCC(=O)O gave a pKa of 4.06.
In the case of O=C(O)c1cccc(F)c1, the pKa is reported as 3.9.
In the case of CC(C)CCC1C(=O)C(O)C(CCC(C)C)(CCC(C)C)C1=O (stereo not given), the pKa is reported as 6.3.
Compound O=C(O)c1cc2ccccc2cc1O has a pKa of 2.71.
Work on O=c1oc2cc(O)ccc2cc1-c1nc2ccccc2o1 yielded a pKa of 6.84.
For Cc1cc(Cc2cc(C)c(O)c(C)c2)c(O)c([N+](=O)[O-])c1, the pKa was 7.98.
With CC[NH+]1CCC[C@@H]1CNC(=O)c1c(OC)ccc(Cl)c1O the pKa was 7.07.
Compound CCc1nsc(O)n1 has a pKa of 6.89.
For N#C/C(=C\C(=O)O)c1ccccc1, the pKa was 3.07.
For O=C(O)C1(O)CCC1, the pKa was 3.88.
Work on O/N=C/NO yielded a pKa of 10.7.
In the case of Cc1c(C(=O)O)cccc1[N+](=O)[O-], the pKa is reported as 2.98.
CCCCN(C(=O)c1cccc(O)c1)c1ccc(/N=N/c2ccc3c(c2)OCCOCCOCCOCCOCCO3)cc1 showed a pKa of 9.54.

Same assay, conditions: basic group
Cc1cnc2c(O)cccc2c1C showed a pKa of 5.8.
In the case of CN(C)c1ccc(Br)cc1, the pKa is reported as 4.25.
Compound C=CCN(CC=C)CCCNC(=O)/C=N/[O-] has a pKa of 9.34.
In the case of C=CC(C)(C)NC(C)(C)C=C, the pKa is reported as 10.1.
With Cc1ccncn1 the pKa was 1.99.
Compound CCS(=O)(=O)c1cc(OC)c(OC)c(C(=O)N[C@@H]2C[C@H]3CC[C@@H](C2)N3Cc2ccccc2)c1 has a pKa of 8.9.
In the case of Cc1nc(C)c(C)[nH+]c1C, the pKa is reported as -2.73.
In the case of CCN(CC)CCSCC(C)C, the pKa is reported as 8.83.
Compound CC(C)(C)CC(=O)n1cnc(Br)c1 has a pKa of 4.
Work on CCCC(=O)C(CCN1CCOCC1)(c1ccccc1)c1ccccc1 yielded a pKa of 7.17.
C=C(C)C(=O)OCCNC showed a pKa of 8.96.
With O=S(=O)([O-])c1ccncc1 the pKa was 3.44.
Work on Cn1cnc2c(N)nc[nH+]c21 yielded a pKa of -0.59.
